Data published in patent US6335339B1, “Triazine antiviral compounds” (Scriptgen Pharmaceuticals, Inc., priority 1998, dated 2002).

Legend:
[1] = test system: HIV derived RRE RNA; assay: heterologous hybridization inhibition assay with RRE RNA; format: binding; settings: radiolabeled RRE RNA, rRNA competitor
Text: Specificity is further tested in a third assay in which the radiolabeled RNA is the HIV derived RRE RNA and the biotinylated oligonucleotide is complementary to RRE. Compounds with high specific activity for εRNA are not expected to be inhibitory in the RRE RNA based assay. The specificity of the ligand for εRNA is expressed as the ratio between the IC50 value obtained with the specific target RNA and the IC50 value obtained with a heterologous target (RRE RNA), both in the presence of competitor RNA.
(§1) Biotinylated oligonucleotides 262.104 A (5′-biotin-TTAGGCACAGCTTGGAGGCTTGAACAGTG-3′) and 208.92 A (5′-biotin-CGTCATTGACGCTGCGCCCA-3′) were synthetically prepared (Oligos Etc., Willsonville, Oreg.). These oligonucleotides are complementary to regions of the εRNA and RRE RNA targets, respectively.
Compounds that inhibited the primary screening assay described above were individually titrated in the same assay at concentrations between 0.1 μM and 200 μM in the absence and presence of 60-fold excess rRNA as a non-specific competitor. A third titration was performed in a heterologous assay using radiolabeled RRE RNA as the target and the complementary biotinylated oligonucleotide 208.92 A. From these three assays, the IC50 values and specificity for each compound was calculated.
IC50 values using rRNA competitor (from Example 1) and radiolabeled RRE RNA are shown in Table 1 for the following ligands. […] Specificity is calculated as the ratio of RRE+rRNA IC50/εRNA+rRNA IC50.

[2] = test system: HBV εRNA; assay: εRNA/oligonucleotide hybridization inhibition assay with rRNA competitor; format: binding, Hepatitis B virus; settings: for IC50: radiolabeled εRNA, 60-fold excess rRNA competitor; for Specificity: ratio RRE+rRNA IC50/εRNA+rRNA IC50, max = inactive in RRE assay
Text: One assay used in determining the activity of the compounds of the present invention is disclosed in copending U.S. patent application Ser. No. 08/709,342, filed Sep. 6, 1996, the disclosure of which is hereby incorporated herein by reference in its entirety. The assay detects the interaction between target RNA molecule and a test ligand by measuring the ligand's ability to inhibit hybridization between the RNA and a specific complementary oligonucleotide. In one embodiment, the target RNA is radiolabelled and the oligonucleotide is labeled with biotin; in this case, the extent of hybridization is determined by measuring the amount of radiolabeled RNA detected with a streptavidin/biotin-based capture system.
Concentrations of test compounds of between about 0.1 μM and about 200 μM are assayed for inhibition using radiolabeled εRNA in the absence or presence of a large excess of an unlabeled non-specific RNA competitor (such as, e.g., ribosomal RNA, rRNA). Compounds that bind εRNA non-specifically are competitively displaced by the rRNA, resulting in reduced or no inhibition of hybridization between the radiolabeled εRNA and the biotinylated oligonucleotide. Conversely, the inhibitory activity of compounds that specifically bind εRNA is not affected by the presence of the competitor rRNA.
The high throughput assays were performed in 96-well plates containing eighty drugs (5 μl, 60 μg/ml in DMSO) distributed one per well in columns 2-6 and 8-12 of the 8×12 96-well array. The remaining 16 wells in columns 1 and 7 were filled with 5 μl DMSO to serve as the control reactions. 45 μl of reaction mixture containing buffer, salts and radiolabeled target RNA were delivered on each well of the compound-containing plates to yield a 50 μl mixture containing 50 mM Tris-HCl, pH 7.5, 200 mM KCl, 5 mM MgCl2, 5 mM DTT, 6 μg/ml test compound, and 25 nM [^32 P]-labeled εRNA. The reaction was started by addition of the biotinylated oligonucleotide, 262.104 A (5 μl) to a final concentration of 100 nM. The reaction was incubated at 25° C. for 60 minutes, and then 5 μl of 0.3 mg/ml SAAP (streptavidin alkaline phosphatase conjugate, Pierce, Rockford, Ill.) was added. The reaction was incubated for an additional 30 minutes at 25° C. and filtered through 96-well format HATF nitrocellulose filters (Millipore, Bedford, Mass.) using a multiscreen vacuum manifold (Millipore, Bedford, Mass.). Subsequently, 300 μl of wash buffer (50 mM Tris-HCl, pH 7.5, 200 mM KCl) was filtered through to wash the filters. The filters were dried and supplemented with 20 μl scintillation fluid (Super Mix, Wallac Oy, Turku, Finland). The amount of hybrids formed was determined by scintillation counting of the radiolabeled εRNA retained on the filters.
The inhibitory effect of a test compound (expressed as percentage of inhibition, % Inh.) was calculated using the following formula: […]
where Ro is the average retention of hybrids in the 16 identical control reactions in columns 1 and 7 and Rx is the hybrids retained in the presence of a test drug, x.
as §1
A plasmid containing the target sequence following the bacteriophage SP6 promoter was used as a template for the synthesis of radiolabeled εRNA using [α^32 P]-UTP and SP6 RNA polymerase as described by the suppliers, e.g., Ambion, Austin, Tex., and by methods well known to those of ordinary skill in the art.
Compounds that inhibited the primary screening assay described above were individually titrated in the same assay at concentrations between 0.1 μM and 200 μM in the absence and presence of 60-fold excess rRNA as a non-specific competitor. […]

SMILES | RRE + rRNA IC50 (μM) [1] | IC50 [2] | Specificity [2] | IC50 [1]
O=[N+]([O-])c1ccc(Nc2nc(NN=CC(Br)=Cc3ccccc3)nc(Nc3ccccc3)n2)cc1 [Compound 17] | inactive | 15.1 µM | max. | 
CCCCN(CCCC)c1nc(NN=Cc2ccc(O)c(O)c2)nc(Nc2ccc([N+](=O)[O-])cc2)n1 [Compound 26] | inactive | 15 µM | max. | 
CCCCN(CCCC)c1nc(N/N=C/C(C)=C/c2ccccc2)nc(Nc2ccc([N+](=O)[O-])cc2)n1 [Compound 31] | inactive | 30 µM | max. | 
Nc1cccc(Nc2nc(Nc3cccc(N)c3)nc(N(c3ccccc3)c3ccccc3)n2)c1 [Compound 32] | inactive | 32.6 µM | max. | 
COc1ccc(Nc2nc(NN=Cc3c[nH]c4ccccc34)nc(Nc3ccccc3)n2)cc1 [Compound 36] |  | 28.9 µM | 53.8 | 1550 µM
O=[N+]([O-])c1ccc(Nc2nc(NN=Cc3c4ccccc4cc4ccccc34)nc(N3CCCCC3)n2)cc1 [Compound 37] | inactive | 30.1 µM | max. | 
O=[N+]([O-])c1ccc(Nc2nc(NN=Cc3cccc(Br)c3)nc(N3CCCCCC3)n2)cc1 [Compound 45] | inactive | 39.9 µM | max. | 
O=[N+]([O-])c1ccc(Nc2nc(NN=Cc3ccc(-c4ccc([N+](=O)[O-])cc4)o3)nc(N3CCCC3)n2)cc1 [Compound 47] | inactive | 25 µM | max. | 
O=[N+]([O-])c1ccc(Nc2nc(NN=Cc3ccccc3F)nc(N3CCCCCC3)n2)cc1 [Compound 48] | inactive | 30 µM | max. | 
COc1ccc([N+](=O)[O-])cc1C=NNc1nc(NCc2ccccc2)nc(Nc2ccccc2)n1 [Compound 54] | inactive | 89.9 µM | max. | 
CCCCN(CCCC)c1nc(N/N=C/c2c3ccccc3cc3ccccc23)nc(Nc2ccc([N+](=O)[O-])cc2)n1 [Compound 55] | inactive | 100 µM | max. | 
O=[N+]([O-])c1ccc(Nc2nc(NN=Cc3ccc(Cl)c(Cl)c3)nc(N3CCCCC3)n2)cc1 [Compound 57] | inactive | 50.1 µM | max. | 
Cc1ccc(Nc2nc(NN=Cc3ccc(Br)cc3)nc(Nc3ccccc3)n2)c(C)c1 [Compound 59] | inactive | 90.1 µM | max. | 
CCCCN(CCCC)c1nc(NN=Cc2c(C)[nH]c3ccccc23)nc(Nc2ccc([N+](=O)[O-])cc2)n1 [Compound 60] | inactive | 100 µM | max. | 
O=[N+]([O-])c1cccc(C=NNc2nc(Nc3cccc4ccccc34)nc(N3CCOCC3)n2)c1O [Compound 64] | inactive | 71.9 µM | max. | 
Cc1ccc(C=NNc2nc(Nc3ccccc3)nc(Nc3ccc([N+](=O)[O-])cc3)n2)cc1 [Compound 66] | inactive | 114 µM | max. | 

SMILES | RRE + rRNA IC50 (μM) [1] | IC50 [2] | Specificity [2] | IC50 [1]
O=[N+]([O-])c1ccc(Nc2nc(NN=Cc3ccc(-c4ccc([N+](=O)[O-])cc4)o3)nc(N3CCOCC3)n2)cc1 [Compound 69] | inactive | 70 µM | max. | 
Brc1cc2c(cc1C=NNc1nc(Nc3ccccc3)nc(N3CCCCC3)n1)OCO2 [Compound 70] | inactive | 80.6 µM | max. | 
Fc1ccc(Nc2nc(Nc3cccc(C(F)(F)F)c3)nc(N3CCOCC3)n2)cc1 [Compound 71] | inactive | 99.9 µM | max. | 
CCCCN(CCCC)c1nc(NN=Cc2cc(Br)cc(Br)c2OC)nc(Nc2ccc([N+](=O)[O-])cc2)n1 [Compound 72] | inactive | 120 µM | max. | 
Clc1ccccc1C=NNc1nc(Nc2ccccc2)nc(N2CCOCC2)n1 [Compound 73] | inactive | 120 µM | max. | 
COc1ccc(/C=N/Nc2nc(Nc3ccc([N+](=O)[O-])cc3)nc(N3CCOCC3)n2)cc1 [Compound 75] | inactive | 160 µM | max. | 
Cc1ccc(Nc2nc(NN=Cc3ccc(-c4cccc(C(=O)O)c4)o3)nc(Nc3ccc([N+](=O)[O-])cc3)n2)cc1C [Compound 76] | inactive | 200 µM | max. | 
O=[N+]([O-])c1ccc(Nc2nc(NN=Cc3cccc(F)c3)nc(N3CCCCCC3)n2)cc1 [Compound 78] | inactive | 133 µM | max. | 
C(=N\Nc1nc(Nc2ccccc2)nc(N2CCOCC2)n1)/c1c[nH]c2ccccc12 [Compound 79] | inactive | 169 µM | max. | 
O=[N+]([O-])c1ccc(Nc2nc(N/N=C/c3ccccc3)nc(N3CCCCCC3)n2)cc1 [Compound 80] | inactive | 200 µM | max. | 
Cc1ccc(Nc2nc(NN=Cc3ccc(O)cc3)nc(Nc3ccccc3)n2)c(C)c1 [Compound 81] | inactive | 120 µM | max. | 
CCCCN(CCCC)c1nc(NN=C(C)c2ccc([N+](=O)[O-])cc2)nc(Nc2ccc([N+](=O)[O-])cc2)n1 [Compound 82] | inactive | 150 µM | max. | 
CCCCN(CCCC)c1nc(NN=Cc2cccc(Br)c2)nc(Nc2ccc([N+](=O)[O-])cc2)n1 [Compound 83] | inactive | 185 µM | max. | 
C(=NNc1nc(NCc2ccccc2)nc(Nc2ccccc2)n1)c1ccccc1 [Compound 84] | inactive | 120 µM | max. | 
CCCCN(CCCC)c1nc(NN=Cc2ccccc2OC)nc(Nc2ccc([N+](=O)[O-])cc2)n1 [Compound 86] | inactive | 200 µM | max. | 
O=[N+]([O-])c1ccc(Nc2nc(NN=Cc3c[nH]c4ccccc34)nc(N3CCCCCC3)n2)cc1 [Compound 87] |  | 8.1 µM | 37.0 | 300 µM
